Results as given in patent US20260007643A1, “HIGHLY SOLUBLE FORMULATIONS OF HARMINE” (Reconnect Labs AG, priority 2022, published 2026).
Read-outs that look alike come from different tables or passages of the source.

Key:
[1] = Method: Thus, the present inventors performed an additional screening, in which different compositions of harmine were manufactured and their solubility in water was examined.
To this end, in a first experiment 1 g of harmine freebase was added to […] of dH2O to yield a final concentration of 20% (w/w). Then, the acids mentioned above were individually added to the solution in different molar rations (e.g. 1:1 or 2:1) and it was examined, whether the acids can solubilize harmine freebase by protonation or complex formation.

[2] = Polymorph and salt screening: stability and evaluation of solid state forms; format: physicochemical
Source text: The form scNF1 was also created in the course of cooling crystallizations in water/acetone (70/30), (70/30), water/dioxane water/THF (70/30) and water/acetonitrile (70/30). In addition, the form scNF1 was created by gas diffusion crystallizations of water/1,4-dioxane, water/2-propanol and water/acetonitrile. In long-term slurries, scNF1 was successfully produced with acetone/water (80/20) and acetonitrile/water (90/10). Rapid precipitations of the form scNF1 with the antisolvent water are achieved with the solvents acetone and acetonitrile. Form scNF1 can also be crystallized by evaporating the solvent water.
The form scNF1 is Harmine-HCl dihydrate, as could be determined by means of TGA after static storage (RT/100% RH for 7 days). […] A more detailed characterization of the form scNF1 was not requested by the client.
In the course of the screening performed, 14 new solid-phases were detected by using XRPD.

[3] = Solubility testing of harmine salts (gravimetric, temperature-dependent); format: physicochemical; conditions: for solubility at 48 h: thermodynamic from solid; for Solubility compared with harmine hydrochloride: in words, data in water
Method: Four 250 mL glass jacketed beakers are set up, which are connected with silicone hoses and connected to a Julabo F25 HE thermostat in order to be able to set a constant temperature. In the beakers there is a Pt100 sensor for temperature monitoring, a stopper with a hole that is sealed with play dough and a vial holder with space for four 4 ml vials for a quadruple determination of the solubility. The beakers are located on a strong magnetic stirrer plate so that the temperature is distributed as homogeneously as possible in the liquid medium. Water is used as the medium. The Pt100 sensors and the Julabo are connected to a measuring computer, which controls the Julabo and the temperatures of the Pt100 sensors can be read.
A Sartorius LE26P microbalance with an accuracy of ±0.01 mg is used for the gravimetric determination of the solubility in mass percent.
4 ml vials are filled with 1-2 mL of the respective solvent and equipped with a stirring magnet. The solid to be measured is then added until it is supersaturated. The prepared vials are sealed and placed in the vial holder and equilibrated in the apparatus for 48 hours at the temperature to be examined. After 24 hours, an equilibrium between the solid and liquid phases should have been reached. The liquid phase is removed and transferred to a second vial via a Whatman 20 μm PTFE pre-syringe filter. The tools used, such as the pre-syringe filter, syringe and cannula, are initially cooled or heated to the temperature to be measured. The second vial is first empty, then weighed with the solution and finally evaporated again to ensure constant mass.
At least when the data in water are considered. […] The solubilities are summarized in the table 14 below and in FIGS. 59 and 60: […]

[4] = Blood plasma profiles of harmine and harmol in healthy volunteers; format: in vivo, Human; conditions: ~3.5 mg/kg
[5] = first pKa value; cited from earlier work
[6] = molecular target: T1, monoamine oxidase A (MAO-A) (Homo sapiens, UniProt P21397); conditions: cited from earlier work
T1 sequence (P21397 1-527): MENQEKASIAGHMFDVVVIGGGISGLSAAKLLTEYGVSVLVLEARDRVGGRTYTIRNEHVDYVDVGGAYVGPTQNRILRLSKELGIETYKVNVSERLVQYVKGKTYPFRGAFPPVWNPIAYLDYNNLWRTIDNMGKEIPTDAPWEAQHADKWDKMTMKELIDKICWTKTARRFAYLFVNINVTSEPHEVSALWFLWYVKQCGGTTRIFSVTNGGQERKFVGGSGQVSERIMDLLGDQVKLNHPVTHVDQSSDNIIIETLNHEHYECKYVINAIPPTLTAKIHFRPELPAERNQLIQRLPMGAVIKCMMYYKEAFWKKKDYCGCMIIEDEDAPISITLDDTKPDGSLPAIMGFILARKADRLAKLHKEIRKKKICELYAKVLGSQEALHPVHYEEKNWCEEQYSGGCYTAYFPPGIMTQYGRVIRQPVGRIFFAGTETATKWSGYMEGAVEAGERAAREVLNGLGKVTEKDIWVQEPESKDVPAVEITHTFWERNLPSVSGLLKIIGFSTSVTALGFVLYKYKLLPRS

[7] = molecular target: T2, monoamine oxidase B (MAO-B) (Homo sapiens, UniProt P27338); conditions: cited from earlier work
T2 sequence (P27338 1-520): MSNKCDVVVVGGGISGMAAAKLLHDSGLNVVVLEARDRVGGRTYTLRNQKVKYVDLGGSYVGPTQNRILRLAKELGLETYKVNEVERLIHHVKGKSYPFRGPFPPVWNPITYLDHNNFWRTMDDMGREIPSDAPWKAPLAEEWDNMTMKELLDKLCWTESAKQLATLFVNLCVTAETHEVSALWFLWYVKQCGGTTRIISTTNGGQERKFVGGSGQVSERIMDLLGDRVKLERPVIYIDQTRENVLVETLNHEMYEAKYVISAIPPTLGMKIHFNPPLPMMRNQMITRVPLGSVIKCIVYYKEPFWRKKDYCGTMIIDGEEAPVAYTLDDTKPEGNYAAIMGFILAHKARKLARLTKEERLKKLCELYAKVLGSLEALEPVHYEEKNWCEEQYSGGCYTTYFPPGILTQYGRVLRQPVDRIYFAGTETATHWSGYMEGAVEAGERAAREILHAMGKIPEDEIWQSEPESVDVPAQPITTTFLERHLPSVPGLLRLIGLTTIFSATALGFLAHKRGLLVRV

[8] = Solubility of harmine in the solvents used in the salt screening; format: physicochemical; conditions: for solubility: organic solvent or mixture
Method: The drug substance Harmine was investigated for a salt screening of different salts by crystallization experiments from various solvents and grinding experiments. Solubility experiments were also conducted before starting the salt screening.
In the following table 3, the different solvents used in the salt screening are summarized.

[9] = pKa and solubility data of harmine and the acids used in the salt screening; format: physicochemical
[10] = Solubility of harmine glucuronate for loading of TIP particles; format: physicochemical
Source text: Loading harmine or its salt into TIP particles: FIG. 12 depicts SEM images of unsuccessful TIP loading with Harmine HCl (A; 1% in EtOH) and successful loadings with Harmine HCl (B; 0.1% in EtOH) and Harmine Glucuronate (C; 25% in H2O). As shown, TIP particles can be loaded with Harmine HCl, but only when using very low substance concentrations (0.1%) in an organic solvent such as EtOH. Loading with higher concentrations (1%) leads to external crystallization. Moreover, using H2O as solvent, triggers the rapid precipitation of HRM HCl as freebase, when it is exposed to basic residues within the TIP particles. […] Regarding the latter point, it could be shown that the loading process of the TIP particles is most efficient, when adding highly concentrated drug substance solutions (either in EtOH, H2O or DMSO) to the particles. Loading TIP particles with harmine glucuronate yielded exceptional results. […] It is thought that this property of HRM GLU is caused by its highly amorphous structure, leading to less crystallization compared to HRM HCl (which crystallizes readily as freebase, especially when exposed to basic residues within the TIP particles).
Thus, harmine glucuronate is very practical to handle on a large scale (e.g. up to 1 Kg of HRM GLU can be dissolved in 1 L of water), yields very efficient loading of the TIP particles.

[11] = Dose-response study of DMT and harmine in healthy subjects: harmine PK profiles; conditions: 180 mg harmine with 90 mg DMT formulated in TIP, ODTs sublingual in 3 dosing intervals every 20 minutes, two subjects
[12] = ethanol, organic solvent or mixture, EtOH, 25° C., read-out: Solubility at 25° C. (EtOH)
[13] = ethanol, organic solvent or mixture, EtOH, 37° C., read-out: Solubility at 37° C. (EtOH)
[14] = water, H2O, 25° C., read-out: Solubility at 25° C. (H2O)
[15] = water, H2O, 37° C., read-out: Solubility at 37° C. (H20)

## O=C(O)[C@H](O)[C@@H](O)[C@H](O)[C@H](O)CO [D-gluconic acid]
[1]
  Solubility of harmine with the acid: higher than 15%

## COc1ccc2c(c1)[nH]c1c(C)nccc12.Cl [Harmine HCl, reference compound]
[2]; RT/100% RH for 7 days
  Solid form change on static storage: converts to the form scNF1
[3]; [12]
  solubility at 48 h: 6.79 mg/mL
[3]; [13]
  solubility at 48 h: 7.95 mg/mL
[3]; [14]
  solubility at 48 h: 24.9 mg/mL
[3]; [15]
  solubility at 48 h: 53.1 mg/mL
[4]; human, plasma, oral administration
  Cmax: ~80 ng/mL
[4]; oral capsule, 10 healthy volunteers
  Harmine plasma level: ~80 ng/mL

## COc1ccc2c(c1)[nH]c1c(C)nccc12.O=P(O)(O)O [Harmine Phosphate]
[2]; any deuterated solvent
  Evaluation/Remarks: solubility in deuterated solvents: Since the new form does not show sufficient solubility
[3]; [12]
  solubility at 48 h: 0.58 mg/mL
[3]; [13]
  solubility at 48 h: 0.55 mg/mL
[3]; listed as Harmine-Phosphate, Phosphate
  Solubility compared with harmine hydrochloride: do not show any better solubility properties
[3]; listed as harmine phosphate, Phosphate
  Solubility compared with harmine hydrochloride: significantly worse
[3]; [14]
  solubility at 48 h: 11 mg/mL
[3]; [15]
  solubility at 48 h: 12.9 mg/mL

## COc1ccc2c(c1)[nH]c1c(C)nccc12 [Harmine, 7-methoxy-1-methyl-9H-pyrido[3,4-b]-indole]
[5]
  pka (½): 7.45
[6]
  Inhibition of MAO-A: reversibly inhibits
[7]
  Inhibition of MAO-B: does not inhibit
[8]; 2-picoline
  solubility: 10 mg/mL
[8]; 95% methanol | 5% water
  Solubility in solvent: almost resolved
[8]; dimethyl carbonate, THF, acetonitrile, methanol, acetone, MEK, dichloromethane (25° C. | 45° C.), chloroform, 1,4-dioxane, water, veratrol, p-xylene, sulfolane, benzonitrile, 95% acetonitrile | 5% water (45° C.), 95% acetone | 5% water (45° C.)
  Anti-Solvent practically insoluble: practically insoluble
[8]; dimethyl sulfoxide (DMSO)
  solubility: 13 mg/mL
[8]; dimethylformamide (DMF), dimethylformamid (DMF), souble
  solubility: 33 mg/mL
[8]; methanol, 45 °C
  solubility: 12 mg/mL
[8]; 1-methyl-2-pyrrolidone (NMP), souble
  solubility: 80 mg/mL
[8]; dimethylacetamide, souble
  solubility: 40 mg/mL
[8]; tetramethylurea, souble
  solubility: 40 mg/mL
[8]; pyridine
  solubility: 205 mg/mL

## COc1ccc2c(c1)[nH]c1c(C)nccc12.Cl.O.O [Harmine-HCl dihydrate]
[2]; after 5 weeks at ambient conditions, powder diffractogram
  Solid form stability at ambient conditions: traces of Harmine-HCl were identified

## O=C(O)[C@@H](O)[C@H](O)[C@H](O)[C@@H](O)C(=O)O [mucic acid]
[1]
  Ability of the acid to solubilize harmine freebase: not able to solubilize harmine

## D-glucuronic acid
[1]; 1 g harmine freebase in 5 g dH2O (20% w/w), acid added in molar ratios e.g. 1:1 or 2:1
  Ability of the acid to solubilize harmine freebase: highest solubility

## Harmine Glucuronate
[9]
  ΔpKs value of harmine and glucuronic acid: 4.27
[10]; H2O, RT
  Solubility in H2O: ~45%
[10]; in 1 L of water
  Amount that can be dissolved in 1 L of water: up to 1 Kg
[3]; 25° C.
  Gravimetric solubility relative to harmin hydrochloride: about eight times
[3]; EtOH, 25° C.
  Solubility at 25° C. (EtOH): 4.25 mg/mL
[3]; EtOH, 37° C.
  Solubility at 37° C. (EtOH): 7.93 mg/mL
[3]; H2O, 25° C.
  Solubility at 25° C. (H2O): 405.95 mg/mL
[3]; H2O, 37° C.
  Solubility at 37° C. (H20): 549.52 mg/mL
[3]
  Solubility compared with harmine hydrochloride: extremely improved solubility
[11]
  Bioavailability of harmine (plasma PK profiles): bioavailable
[1]; harmine + equimolar glucuronic acid in deionized water, 1 g harmine in 5 mL final volume
  Harmine concentration readily feasible in water: > 20%

## L(−)-Malic acid
[9]; harmine pKa 7.45 versus first pKa of the acid
  ΔpKa: 3.99
[9]; harmine pKa 7.45 versus second pKa of the acid
  ΔpKa: 2.35
